Assay results taken from US20240109865A1, “INDAZOLE COMPOUNDS AS KINASE INHIBITORS” (TYRA BIOSCIENCES, INC., priority 2020, published 2024).

Tests used:
[1] = target: FGFR3-BAIAP2L1 Ba/F3 cells (Homo sapiens, UniProt P22607); test: Ba/F3 cell viability assay (CellTiter-Glo 2.0), FGFR3-BAIAP2L1 Ba/F3; type: cell-based; conditions: for Ba/F3 FGFR1/FGFR3 Selectivity: FGFR3 > FGFR1 selectivity ratio in Ba/F3 FGFR fusion cell based assays; for IC50: read-out: Ba/F3 Cells FGFR3 (IC50 nM), FGFR3-BAIAP2L1 Ba/F3 cells, 48 hours, Cell Titer Glo 2.0
In short: (§1)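 Viability read as ATP luminescence (CellTiter-Glo 2.0) after 48 h compound exposure, normalized to DMSO-treated cells and fitted with a 4-parameter curve for IC50. Cells: Ba/F3 dependent on FGFR1-BCR or FGFR3-BAIAP2L1 fusion kinase; top dose 30 μM, 10-fold steps, 9 doses in triplicate.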

FGFR1-BCR Ba/F3 cells = FGFR1-BCR Ba/F3 cells (Homo sapiens, UniProt P11362); test: Ba/F3 cell viability assay (CellTiter-Glo 2.0), FGFR1-BCR Ba/F3; type: cell-based; conditions: read-out: Ba/F3 Cells FGFR1 (IC50 nM), 48 hours, Cell Titer Glo 2.0
In short: as §1

FGFR1 = FGFR1 (Homo sapiens (Human), UniProt P11362); test: Kinase assay, binding constants (Kd), kinase-tagged T7 phage, qPCR
In short: (§2)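 Kinase-tagged T7 phage (grown in BL21-derived E. coli) competed with test compound for immobilized biotinylated ligand on streptavidin beads. Kds came from an 11-point 3-fold dilution series at 0.9% final DMSO. Bound kinase was eluted with non-biotinylated ligand and quantified by qPCR, with Hill slope fixed at −1.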

FGFR2 = FGFR2 (Homo sapiens (Human), UniProt P21802); test: as above
In short: as §2

FGFR3 = FGFR3 (Homo sapiens (Human), UniProt P22607); test: as above
In short: as §2

FGFR3 (V555M) = FGFR3 (V555M) (Homo sapiens (Human), UniProt P22607, V555M); test: as above; conditions: V555M mutant
In short: as §2

FGFR4 = FGFR4 (Homo sapiens (Human), UniProt P22455); test: as above
In short: as §2

Sequence of FGFR1 (P11362 22-822): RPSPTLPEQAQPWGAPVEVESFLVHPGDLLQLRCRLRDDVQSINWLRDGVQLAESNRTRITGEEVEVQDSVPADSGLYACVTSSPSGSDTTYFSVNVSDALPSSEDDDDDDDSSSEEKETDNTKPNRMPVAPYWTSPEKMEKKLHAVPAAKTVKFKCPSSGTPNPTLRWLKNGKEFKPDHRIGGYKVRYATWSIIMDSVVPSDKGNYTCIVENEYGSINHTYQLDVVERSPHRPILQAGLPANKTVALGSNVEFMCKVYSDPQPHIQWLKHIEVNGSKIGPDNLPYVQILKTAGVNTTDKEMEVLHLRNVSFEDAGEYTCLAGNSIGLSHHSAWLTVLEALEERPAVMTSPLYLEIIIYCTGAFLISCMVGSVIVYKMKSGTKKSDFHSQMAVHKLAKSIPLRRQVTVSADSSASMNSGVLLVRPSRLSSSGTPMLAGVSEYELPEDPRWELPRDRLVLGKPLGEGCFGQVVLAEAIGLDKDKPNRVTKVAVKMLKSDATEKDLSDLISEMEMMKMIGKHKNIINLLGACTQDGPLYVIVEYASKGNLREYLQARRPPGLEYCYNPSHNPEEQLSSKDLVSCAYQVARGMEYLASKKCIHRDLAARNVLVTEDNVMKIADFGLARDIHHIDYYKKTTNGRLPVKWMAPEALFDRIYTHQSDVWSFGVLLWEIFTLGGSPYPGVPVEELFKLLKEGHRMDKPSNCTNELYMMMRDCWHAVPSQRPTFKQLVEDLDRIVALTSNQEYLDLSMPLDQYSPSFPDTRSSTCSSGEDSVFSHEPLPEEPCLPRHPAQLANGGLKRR
Sequence of FGFR1-BCR Ba/F3 cells (P11362 22-822 limits assumed, change not shown): as the sequence (P11362 22-822) above
Sequence of FGFR2 (P21802 22-821): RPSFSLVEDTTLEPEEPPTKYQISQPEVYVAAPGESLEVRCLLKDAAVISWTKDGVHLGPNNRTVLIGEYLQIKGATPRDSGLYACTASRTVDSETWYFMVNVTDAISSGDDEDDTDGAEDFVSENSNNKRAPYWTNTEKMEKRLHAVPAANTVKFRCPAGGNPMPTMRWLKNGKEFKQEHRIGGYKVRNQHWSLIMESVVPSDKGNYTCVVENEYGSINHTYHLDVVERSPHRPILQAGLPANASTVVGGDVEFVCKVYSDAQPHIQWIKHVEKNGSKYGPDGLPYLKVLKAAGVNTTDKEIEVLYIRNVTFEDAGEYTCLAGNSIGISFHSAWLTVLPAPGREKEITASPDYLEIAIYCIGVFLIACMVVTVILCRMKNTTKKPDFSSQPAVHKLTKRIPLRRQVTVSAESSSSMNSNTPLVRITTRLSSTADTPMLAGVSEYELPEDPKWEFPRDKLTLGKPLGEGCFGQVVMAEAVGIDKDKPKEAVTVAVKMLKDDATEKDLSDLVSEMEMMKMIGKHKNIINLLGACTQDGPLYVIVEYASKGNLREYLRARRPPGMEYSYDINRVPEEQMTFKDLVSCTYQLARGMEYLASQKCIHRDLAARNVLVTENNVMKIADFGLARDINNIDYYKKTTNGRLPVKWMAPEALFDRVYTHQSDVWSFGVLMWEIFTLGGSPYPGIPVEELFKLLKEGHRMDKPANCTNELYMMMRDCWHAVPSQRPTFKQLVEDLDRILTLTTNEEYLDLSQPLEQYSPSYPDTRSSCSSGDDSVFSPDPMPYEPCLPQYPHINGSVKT
Sequence of FGFR3-BAIAP2L1 Ba/F3 cells (P22607 23-806 limits assumed, change not shown): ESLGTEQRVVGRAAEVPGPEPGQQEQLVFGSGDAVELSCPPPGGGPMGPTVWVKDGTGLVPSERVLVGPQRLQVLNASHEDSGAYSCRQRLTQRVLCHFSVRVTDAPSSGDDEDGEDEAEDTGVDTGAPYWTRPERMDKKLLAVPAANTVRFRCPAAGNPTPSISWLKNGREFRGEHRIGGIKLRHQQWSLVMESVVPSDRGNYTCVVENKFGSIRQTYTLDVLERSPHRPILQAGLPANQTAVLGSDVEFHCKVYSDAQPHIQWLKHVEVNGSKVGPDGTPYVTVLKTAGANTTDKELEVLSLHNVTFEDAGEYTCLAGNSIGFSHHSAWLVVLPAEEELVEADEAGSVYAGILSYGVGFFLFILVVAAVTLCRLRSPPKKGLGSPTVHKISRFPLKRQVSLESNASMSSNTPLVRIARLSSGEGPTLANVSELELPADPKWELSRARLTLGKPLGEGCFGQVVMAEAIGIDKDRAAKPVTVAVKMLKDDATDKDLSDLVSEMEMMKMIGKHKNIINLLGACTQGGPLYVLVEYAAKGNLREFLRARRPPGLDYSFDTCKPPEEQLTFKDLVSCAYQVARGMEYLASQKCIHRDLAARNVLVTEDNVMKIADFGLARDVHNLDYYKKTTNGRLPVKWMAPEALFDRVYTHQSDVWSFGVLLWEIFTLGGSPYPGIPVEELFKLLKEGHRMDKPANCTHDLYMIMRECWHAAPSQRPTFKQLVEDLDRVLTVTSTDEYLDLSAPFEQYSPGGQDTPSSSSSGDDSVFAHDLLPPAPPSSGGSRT
Sequence of FGFR3 (P22607 23-806): as the sequence (P22607 23-806 limits assumed, change not shown) above
Sequence of FGFR3 (V555M) (P22607 23-806 V555M): as the sequence (P22607 23-806 limits assumed, change not shown) above, with V533M counted along it
Sequence of FGFR4 (P22455 22-802): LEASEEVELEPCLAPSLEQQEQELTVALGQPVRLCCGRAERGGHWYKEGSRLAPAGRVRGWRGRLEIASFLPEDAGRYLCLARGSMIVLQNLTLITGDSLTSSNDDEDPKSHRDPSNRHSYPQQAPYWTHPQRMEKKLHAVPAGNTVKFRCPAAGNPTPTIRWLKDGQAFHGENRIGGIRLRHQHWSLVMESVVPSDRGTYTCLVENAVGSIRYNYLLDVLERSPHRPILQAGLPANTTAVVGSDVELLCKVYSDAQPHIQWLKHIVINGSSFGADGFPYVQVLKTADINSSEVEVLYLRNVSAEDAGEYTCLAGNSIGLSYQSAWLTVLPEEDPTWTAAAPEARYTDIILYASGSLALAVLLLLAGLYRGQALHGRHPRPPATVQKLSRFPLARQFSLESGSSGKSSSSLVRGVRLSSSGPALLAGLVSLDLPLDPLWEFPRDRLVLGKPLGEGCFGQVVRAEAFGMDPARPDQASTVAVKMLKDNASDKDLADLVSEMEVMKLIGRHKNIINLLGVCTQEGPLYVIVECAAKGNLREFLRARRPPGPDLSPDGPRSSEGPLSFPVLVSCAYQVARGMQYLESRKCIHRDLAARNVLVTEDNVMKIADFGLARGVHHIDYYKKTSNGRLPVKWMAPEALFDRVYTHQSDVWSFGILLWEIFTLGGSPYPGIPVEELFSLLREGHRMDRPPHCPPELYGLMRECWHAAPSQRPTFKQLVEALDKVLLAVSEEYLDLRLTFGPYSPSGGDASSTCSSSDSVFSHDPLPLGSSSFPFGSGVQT

SMILES | Ba/F3 FGFR1/FGFR3 Selectivity [1] | IC50 [1] [nM] | IC50 (FGFR1-BCR Ba/F3 cells) [nM] | Kd (FGFR1) [nM] | Kd (FGFR2) [nM] | Kd (FGFR3) [nM] | Kd (FGFR3 (V555M)) [nM] | Kd (FGFR4) [nM]
C[C@@H](Oc1ccc2[nH]nc(-c3ccc(N4CCC5(CC4)CCS(=O)(=O)C5)nc3)c2c1)c1c(Cl)cncc1Cl [Example 78, 8-[5-[5-[(1R)-1-(3,5-dichloro-4-pyridyl)ethoxy]-1H-indazol-3-yl]-2-pyridyl]-2λ^6-thia-8-azaspiro[4.5]decane 2,2-dioxide] | 13 | 1 to 20 | 20 to 100 | 1 to 20 | 1 to 20 | 1 to 20 | 1 to 20 | 1 to 20
Cc1ncc(Cl)c([C@@H](C)Oc2ccc3[nH]nc(-c4cnn(C5CCNCC5)c4)c3c2)c1Cl [Example 92, 5-[(1R)-1-(3,5-dichloro-2-methyl-4-pyridyl)ethoxy]-3-[1-(4-piperidyl)pyrazol-4-yl]-1H-indazole] | 18 | 20 to 100 | 100 to 300 | 1 to 20 | 1 to 20 | 1 to 20 | 1 to 20 | 20 to 100
CC(Oc1ccc2[nH]nc(-c3cnn(C4CCN(C5COC5)CC4)c3)c2c1)c1c(Cl)ccnc1Cl (centres unmarked) [Example 108, 5-[1-(2,4-dichloro-3-pyridyl)ethoxy]-3-[1-[1-(oxetan-3-yl)-4-piperidyl]pyrazol-4-yl]-1H-indazole] | 14 | 1 to 20 | 100 to 300 | 20 to 100 | 1 to 20 | 1 to 20 | 1 to 20 | 20 to 100
C[C@@H](Oc1ccc2[nH]nc(-c3ccc(N4CCN(S(C)(=O)=O)CC4=O)nc3)c2c1)c1c(Cl)cncc1Cl [Example 39, 1-[5-[5-[(1R)-1-(3,5-dichloro-4-pyridyl)ethoxy]-1H-indazol-3-yl]-2-pyridyl]-4-methylsulfonyl-piperazin-2-one] | 16 | 1 to 20 | 100 to 300 | 20 to 100 | 20 to 100 | 1 to 20 | 1 to 20 | 1 to 20
COC(=O)N1CCC2(CC1)CN(c1ncc(-c3n[nH]c4ccc(O[C@H](C)c5c(Cl)cncc5Cl)cc34)cn1)C2 [Example 136, methyl 2-[5-[5-[(1R)-1-(3,5-dichloro-4-pyridyl)ethoxy]-1H-indazol-3-yl]pyrimidin-2-yl]-2,7-diazaspiro[3.5]nonane-7-carboxylate] | 6 | 20 to 100 | > 300 | 20 to 100 | 1 to 20 | 1 to 20 | 1 to 20 | 1 to 20
C[C@@H](Oc1ccc2[nH]nc(-c3cnc(N4CC5(CCCS(=O)(=O)C5)C4)nc3)c2c1)c1c(Cl)cncc1Cl [Example 129, 2-[5-[5-[(1R)-1-(3,5-dichloro-4-pyridyl)ethoxy]-1H-indazol-3-yl]pyrimidin-2-yl]-6λ^6-thia-2-azaspiro[3.5]nonane 6,6-dioxide] | 6 | 20 to 100 | 100 to 300 | 20 to 100 | 20 to 100 | 1 to 20 | 1 to 20 | 1 to 20
CCN1CC[C@@H](n2cc(-c3n[nH]c4ccc(O[C@H](C)c5c(Cl)cncc5Cl)cc34)cn2)C1 [Example 91, 5-[(1R)-1-(3,5-dichloro-4-pyridyl)ethoxy]-3-[1-[(3R)-1-ethylpyrrolidin-3-yl]pyrazol-4-yl]-1H-indazole] | 8 | 1 to 20 | 100 to 300 | 1 to 20 | 1 to 20 | 1 to 20 | 1 to 20 | 20 to 100
C[C@@H](Oc1ccc2[nH]nc(-c3ccc(N4CC5(CNC5)OC4=O)nc3)c2c1)c1c(Cl)cncc1Cl [Example 73, 7-[5-[5-[(1R)-1-(3,5-dichloro-4-pyridyl)ethoxy]-1H-indazol-3-yl]-2-pyridyl]-5-oxa-2,7-diazaspiro[3.4]octan-6-one] | 11 | 20 to 100 | 100 to 300 | 1 to 20 | 20 to 100 | 1 to 20 | 1 to 20 | 1 to 20
C[C@@H](Oc1ccc2[nH]nc(-c3ccc(N4CCCNC(=O)C4)nc3)c2c1)c1c(Cl)cncc1Cl [Example 35, 4-[5-[5-[(1R)-1-(3,5-dichloro-4-pyridyl)ethoxy]-1H-indazol-3-yl]-2-pyridyl]-1,4-diazepan-2-one] | 6 | 20 to 100 | > 300 | 20 to 100 | 20 to 100 | 1 to 20 | 1 to 20 | 1 to 20
C[C@@H](Oc1ccc2[nH]nc(-c3cnc(N4CCCN(C(N)=O)CC4)nc3)c2c1)c1c(Cl)cncc1Cl [Example 62, 4-[5-[5-[(1R)-1-(3,5-Dichloro-4-pyridyl)ethoxy]-1H-indazol-3-yl]pyrimidin-2-yl]-1,4-diazepane-1-carboxamide] | 8 | 20 to 100 | > 300 | 20 to 100 | 20 to 100 | 1 to 20 | 1 to 20 | 1 to 20
C[C@@H](Oc1ccc2[nH]nc(-c3cnn(C4CCNCC4)c3)c2c1)c1cc(F)cc(F)c1 [Example 166, 5-[(1R)-1-(3,5-difluorophenyl)ethoxy]-3-[1-(4-piperidyl)pyrazol-4-yl]-1H-indazole] | 6 | 100 to 300 | > 300 | 20 to 100 | 1 to 20 | 1 to 20 | 1 to 20 | > 300
Cc1ncc(Cl)c([C@@H](C)Oc2ccc3[nH]nc(-c4cnn(C5CCN(C)CC5)c4)c3c2)c1Cl [Example 80, 5-[(1R)-1-(3,5-dichloro-2-methyl-4-pyridyl)ethoxy]-3-[1-(1-methyl-4-piperidyl)pyrazol-4-yl]-1H-indazole] | 17 | 1 to 20 | 100 to 300 | 1 to 20 | 1 to 20 | 1 to 20 | 1 to 20 | 100 to 300
Cc1ncc(Cl)c([C@@H](C)Oc2ccc3[nH]nc(-c4cnn(C5CCS(=O)(=O)CC5)c4)c3c2)c1Cl [Example 116, 4-[4-[5-[(1R)-1-(3,5-dichloro-2-methyl-4-pyridyl)ethoxy]-1H-indazol-3-yl]pyrazol-1-yl]thiane 1,1-dioxide] | 12 | 1 to 20 | 100 to 300 | 20 to 100 | 20 to 100 | 1 to 20 | 1 to 20 | 20 to 100
C[C@@H](Oc1ccc2[nH]nc(-c3cnn(C4CCN(C(N)=O)CC4)c3)c2c1)c1c(Cl)cncc1Cl [Example 68, 4-[4-[5-[(1R)-1-(3,5-dichloro-4-pyridyl)ethoxy]-1H-indazol-3-yl]pyrazol-1-yl]piperidine-1-carboxamide] |  | 1 to 20 | 100 to 300 | 1 to 20 | 1 to 20 | 1 to 20 | 1 to 20 | 1 to 20
C[C@@H](Oc1ccc2[nH]nc(-c3ccc(N4CC5(CCN(C)CC5)OC4=O)nc3)c2c1)c1c(Cl)cncc1Cl [Example 75, 3-[5-[5-[(1R)-1-(3,5-dichloro-4-pyridyl)ethoxy]-1H-indazol-3-yl]-2-pyridyl]-8-methyl-1-oxa-3,8-diazaspiro[4.5]decan-2-one] | 14 | 1 to 20 | 100 to 300 | 1 to 20 | 1 to 20 | 1 to 20 | 1 to 20 | 1 to 20
